Measured values from patent publication US11618894B2, “Bacteria engineered to reduce hyperphenylalaninemia” (Synlogic Operating Company, Inc., priority 2015, dated 2023).

Key:
[1] = Oral gavage of TCA in PKU mice, recovery of TCA and hippuric acid in urine, feces and blood
[2] = Turnover of orally gavaged TCA into hippuric acid, recovery in urine; format: in vivo, Pah ENU2/2 mice
Description: To determine whether hippuric acid detection in the urine is suitable as a measure for in vivo cell activity and a potential biomarker, the extent of turnover of TCA into hippuric acid was assessed by oral gavage of various concentrations of TCA in PKU mice and subsequent measurement of TCA and hippuric acid by LC/MS.
Various TCA concentrations were administered by oral gavage.
Urine and feces were transferred to appropriate tubes and store samples on ice until processed for MS analysis.
Next, the kinetics of conversion of TCA to hippuric acid was assessed in a time course post pure TCA oral gavage. […] TCA concentrations were administered by oral gavage. […] Urine was transferred to appropriate tubes and store samples on ice until processed for MS analysis.

hippurate = assay: Kinetics of hippurate recovery in urine, gavage of live cells vs pure TCA; format: in vivo, mice
From the text: FIG. 56 depicts a graph showing hippurate recovery in urine, and comparing kinetics of the generation of hippuric acid from phenylalanine through the gavage of live cells to the generation of hippuric acid derived from pure TCA gavage.

[3] = Kinetics of phenylalanine in the enterocirculation model; format: in vivo, PKU (enu2) mice; settings: subcutaneous 0.1 mg/g phenylalanine
Description: To characterize the phenylalanine enterocirculation model, first the kinetics of serum levels of phenylalanine post phenylalanine challenger were assessed.
On day −6, PKU (enu2) mice were placed on phenylalanine-free chow and water (+)Phe (0.5 g/L)
On day 1, animals were bled to get T=0 (pre Phe challenge), and animals were randomized into two groups based on phenylalanine levels measured. The first treatment group (n=15) included mice for use for the 2, 6 and 24 hour post phenylalanine challenge time points; Group 2 (n=15) included mice for the 4 and 8 hour post phenylalanine challenge time points.
Mice were pre-weighed to obtain the average weight for each group. Phenylalanine was dosed at a concentration equal to average group weight. Animals were dosed subcutaneously with 0.1 mg/g phenylalanine. In Group 1, animals were bled at 2, 6 and 24 h post Phe challenge. In Group 2, animals were bled at 4 and 8 h post Phe challenge. Whisker plots in FIG. 38A and FIG. 38B show distribution of mouse blood phenylalanine levels (both overall phenylalanine levels (FIG. 38A) and change in phenylalanine levels from T0 (FIG. 38B). Phenylalanine levels were stably elevated over at least a 6 hour period. […]
On day −6, PKU mice were placed on phenylalanine-free chow and water (+)Phe (0.5 g/L). […] Animals were randomized into three treatment groups based on phenylalanine levels measured. […]

[4] = oral gavage 0.0125, 0.025, 0.05 or 0.1 mg/g TCA, 4 hours after gavage

period over which blood phenylalanine levels were stably elevated [3] | SMILES | recovery of TCA in the form of hippurate in urine [1, 4] | TCA and hippurate in blood and feces ([1]; oral gavage 0.0125-0.1 mg/g TCA, 4 hours post gavage) | recovery of TCA in the form of hippurate in the urine [2, 4] | TCA and hippurate detected in blood and feces ([2]; oral gavage of TCA, 4 h, data not shown) | time of rapid decrease in hippurate recovery in urine post collection start (hippurate)
– | O=C(O)/C=C/c1ccccc1 [TCA, Trans-cinnamic acid] | nearly full recovery | Insignificant amounts | nearly full recovery | Insignificant amounts | ≤ 15 min
≥ 6 h | N[C@@H](Cc1ccccc1)C(=O)O [Phenylalanine, phenylalanine] | – | – | – | – | –
